Reference: paper PMC7060200, “Selective Binding of HSC70 and its Co-Chaperones to Structural Hotspots on CFTR” (Scientific Reports, 2020)
Entries after “also recorded” stand apart in the source; their conditions may differ. Where two headings read alike, the source gives them in different places. Ends that are not written are not given here. Peptide text beside a SMILES is read from it.

Tests used:
DJA2 [1] = target: T1, DJA2 (Homo sapiens, UniProt O60884); assay: Competition ELISA: soluble peptide vs DJA2 binding to immobilized 1097-L; details: for competition of DJA2 binding to immobilized 1097-L (in words): 1 μM DJA2, soluble peptide up to 100 μM; for DJA2 binding site by competition screen (in words): 1 μM DJA2, 100 μM soluble peptide, Fig. 3c/5, cutoff twice SD of 733-L, n ≥ 4
T1 construct: made in house
T1 sequence (O60884 whole entry): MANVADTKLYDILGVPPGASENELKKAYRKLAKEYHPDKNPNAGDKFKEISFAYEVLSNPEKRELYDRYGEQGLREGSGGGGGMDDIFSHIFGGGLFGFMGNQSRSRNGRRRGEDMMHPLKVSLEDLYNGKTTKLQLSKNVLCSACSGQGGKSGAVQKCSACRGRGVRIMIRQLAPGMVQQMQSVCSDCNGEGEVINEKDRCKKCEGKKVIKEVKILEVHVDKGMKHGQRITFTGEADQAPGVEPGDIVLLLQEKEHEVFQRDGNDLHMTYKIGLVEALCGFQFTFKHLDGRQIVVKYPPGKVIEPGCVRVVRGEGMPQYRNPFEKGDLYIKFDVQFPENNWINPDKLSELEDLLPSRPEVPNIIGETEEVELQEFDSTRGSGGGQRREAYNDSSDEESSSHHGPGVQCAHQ
Description: (§1) HSC70, DJA1 and DJA2 were purified as His-tagged proteins, as described. HSC70 was also amplified by PCR with an N-terminal FLAG tag, inserted into pPROEXHTa (Invitrogen) and purified as described. HSC70 was stored in 100 mM KOAc, 20 mM HEPES-KOH pH 7.5, 5 mM MgOAC2 (buffer G), DJA1 and DJA2 in 500 mM NaCl, 20 mM HEPES-KOH pH 7.5, 5 mM MgOAC2 (buffer H). Avi-tagged CFTR NBD1 was purified as described.
(§2) The CFTR peptide library was designed as 15-mers with 10-residue overlaps covering the cytosolic sequences as in Fig. 1a and Supplemental Table S1. Synthetic peptides (Mimotopes, PepSet purity) contained an N-terminal biotin followed by linker sequence GSGS and the 15-mer sequence. […] Peptides were reconstituted in DMSO or water.
(§3) For peptide binding, streptavidin-coated black 96-well plates (Nunc Maxisorp, ThermoFisher) were pre-rinsed with PBS containing 0.05% Tween-20 (PBST), and 5 µM biotinylated peptides in 100 µl PBS were bound overnnight at 4 °C with agitation. Plates were washed with PBST and blocked with PBST containing 0.5% bovine serum albumin (BSA) for 1 h. After removal of blocking solution, 100 µl reactions containing chaperones at indicated concentrations were bound for 45 min at room temperature with agitation. HSC70 reactions were in buffer G containing 1 mM ATP, DJA1 and DJA2 reactions were in buffer H. For competition assays, chaperones and peptides were mixed at indicated concentrations immediately before the reactions were added to the plates. For detections, the plates were washed in PBST and 5 μM His-Probe-HRP conjugate (ThermoFisher) in 100 μL PBST added for 15 min with agitation. After washing in PBST, plates were developed using Amplex Red (ThermoFisher) according to manufacturer’s instructions, in a fluorescence plate reader (Tecan M1000).
(§4) Affinities were determined separately from binding curves and from competition curves. Data from binding of chaperones to immobilized peptides (Fig. 2a,b and Supplemental Fig. S2a–c) were fit to the equation 1/(1 − i) = (C/i)/Kd^B − b, where i is the relative saturation, C is the chaperone concentration (1 μM), Kd^B is the apparent dissociation constant from the binding data. In the plot of 1/(1 − i) against (C/i), the slope is 1/Kd^B, and −b is the intercept. […] In the plot of bi + (C/Kd^B)/i over D, the slope is 1/Kd^C, and e is the intercept. The amount of chaperone bound in the absence of competitor was set as i = 1.
(§5) Established statistical methods[71]–[73] were used to analyze the data for chaperone binding to the peptide library. First, biological and statistical outliers were identified with the Tukey method in two rounds, for biological and then statistical outliers. […] Binding data were represented as multiples of the standard deviations from the normal means. Binding in the presence of competitor peptides were shown as a fraction of binding in the absence of competitor, or the fraction competed calculated as 1 – fraction bound. Values were compared using a two-tailed unpaired Student’s t-test assuming unequal variance.

HSC70 [2] = target: T2, HSC70 (Homo sapiens, UniProt P11142); assay: Competition ELISA: soluble peptide vs HSC70 binding to immobilized 1097-L; details: for HSC70 binding site by competition screen (in words): 1 μM HSC70, 100 μM soluble peptide, Fig. 3c/5, cutoff twice SD of 733-L, n ≥ 4; for competition of HSC70 binding to immobilized 1097-L (in words): 1 μM HSC70, soluble peptide up to 100 μM
T2 construct: made in house
T2 sequence (P11142 whole entry): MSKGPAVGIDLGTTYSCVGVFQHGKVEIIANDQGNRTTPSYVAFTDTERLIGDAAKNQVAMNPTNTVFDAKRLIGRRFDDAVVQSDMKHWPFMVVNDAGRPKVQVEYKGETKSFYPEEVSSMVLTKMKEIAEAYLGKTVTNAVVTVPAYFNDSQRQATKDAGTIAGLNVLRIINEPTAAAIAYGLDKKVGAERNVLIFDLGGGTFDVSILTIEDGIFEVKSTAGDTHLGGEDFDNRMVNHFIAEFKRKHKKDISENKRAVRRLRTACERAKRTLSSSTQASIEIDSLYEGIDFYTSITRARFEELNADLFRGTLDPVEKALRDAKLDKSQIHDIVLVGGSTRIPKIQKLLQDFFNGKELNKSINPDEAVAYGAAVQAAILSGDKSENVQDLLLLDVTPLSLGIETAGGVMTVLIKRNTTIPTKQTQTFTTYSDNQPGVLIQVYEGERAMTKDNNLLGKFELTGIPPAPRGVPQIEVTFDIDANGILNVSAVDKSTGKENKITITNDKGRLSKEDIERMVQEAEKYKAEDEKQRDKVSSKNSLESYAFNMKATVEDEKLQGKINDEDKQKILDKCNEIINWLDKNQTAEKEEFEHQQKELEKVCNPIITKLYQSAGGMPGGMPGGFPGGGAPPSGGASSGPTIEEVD
Description: as §1, §2, §3, §4, §5

HSC70 and DJA2 = assay: Refolding of guanidine denatured luciferase by HSC70 and DJA2; assay type: biochemical; details: 4 μM each HSC70 and DJA2, 100 nM luciferase, 100 μM peptide (25-fold excess), 60 min, % of control without peptide; n = 3
Description: Refolding of guanidine denatured luciferase with HSC70 and DJA2 was as described. […] To monitor refolding, luciferase activity was measured in a luminometer (Berthold Sirius) with the luciferase assay kit (Promega). For co-IPs, 20 μL reaction aliquots were stopped by dilution at 4 °C to 500 μL with buffer containing 0.1% Triton X-100, 0.2% BSA and 0.04 mg/mL apyrase (Sigma). Reactions were incubated with FLAG-M2 magnetic beads (Sigma) for 1 h at 4 °C with agitation, then beads were isolated and washed with buffer G containing 0.1% Triton X-100, and eluted with 40 μL of 1 μg/mL FLAG peptide in the same buffer. Samples were analyzed on Western blots detected with antibodies against luciferase (Sigma, L2164) and the FLAG-M2 tag (Sigma, F1804).

DJA1 [3] = target: T3, DJA1 (Homo sapiens, UniProt P31689); assay: Competition ELISA: soluble peptide vs DJA1 binding to immobilized 1097-L; details: for DJA1 binding site by competition screen (in words): 1 μM DJA1, 100 μM soluble peptide, Fig. 3c/5, cutoff twice SD of 733-L, n ≥ 4; for competition of DJA1 binding to immobilized 1097-L (in words): 1 μM DJA1, soluble peptide up to 100 μM
T3 construct: made in house
Description: as §1, §2, §3, §4, §5

HSC70 [4] = target: T2, HSC70; assay: ELISA binding of HSC70 to immobilized biotinylated CFTR peptides; details: for binding in peptide library screen, HSC70 (in words): 2 μM HSC70, with ATP, immobilized 15-mer, n ≥ 3
Description: as §1, §2, §3, §4, §5

DJA1 [5] = target: T3, DJA1; assay: ELISA binding of DJA1 to immobilized biotinylated CFTR peptides; details: 2 μM DJA1, absence of ATP, immobilized 15-mer; n ≥ 3
Description: as §1, §2, §3, §4, §5

DJA2 [6] = target: T1, DJA2; assay: ELISA binding of DJA2 to immobilized biotinylated CFTR peptides; details: 2 μM DJA2, absence of ATP, immobilized 15-mer; n ≥ 3
Description: as §1, §2, §3, §4, §5

Compound | competition of DJA2 binding to immobilized 1097-L (in words) (DJA2 [1]) | HSC70 binding site by competition screen (in words) (HSC70 [2]) | competition of HSC70 binding to immobilized 1097-L (in words) (HSC70 [2]) | competition of DJA1 binding to immobilized 1097-L (in words) (DJA1 [3]) | also measured
LRWFQMRIE [Peptide 1100-S] | competed | – | – | – | –
ILCEHRIEA [Peptide 1402-S, NBD2 9-mer] | – | HSC70 site | – | – | –
SKLFFSWTR [Peptide 17-S] | – | – | competed HSC70 well | – | effect on luciferase refolding (in words) (HSC70 and DJA2): partial but still significant
HRIEAMLEC [Peptide 1406-S, NBD2 9-mer] | – | HSC70 site | – | – | –
DLYLLDSPF [Peptide 571-S, NBD1 9-mer] | – | bound only by DJA2 | – | – | DJA1 binding site by competition screen (in words) (DJA1 [3]): bound only by DJA2; DJA2 binding site by competition screen (in words) (DJA2 [1]): bound only by DJA2
CC[C@H](C)[C@H](NC(=O)[C@H](CCCNC(=N)N)NC(=O)[C@H](Cc1c[nH]cn1)NC(=O)[C@H](CCC(=O)O)NC(=O)[C@H](CS)NC(=O)[C@H](CC(C)C)NC(=O)[C@@H](NC(=O)[C@@H](NC(=O)[C@@H](N)[C@@H](C)O)C(C)C)[C@@H](C)CC)C(=O)N[C@@H](CCC(=O)O)C(=O)N[C@@H](C)C(=O)N[C@@H](CCSC)C(=O)N[C@@H](CC(C)C)C(=O)N[C@@H](CCC(=O)O)C(=O)N[C@@H](CS)C(=O)O [Peptide 1403-L] (H-TVILCEHRIEAMLEC-OH) | competed all of the chaperones well | – | competed all of the chaperones well | competed all of the chaperones well | Kd (DJA2 [1]): 0.995 µM
493-L: NBD1 15-mer 486-500 (GRISFCSQFSWIMPG; UniProt P13569 486-500, looked up, fragment) [Peptide 493-L] | competed poorly | – | competed poorly | competed poorly | binding in peptide library screen, HSC70 (in words) (HSC70 [4]): binding by DJA1, HSC70 and DJA2, in the original screen; binding in peptide library screen, DJA1 (in words) (DJA1 [5]): binding by DJA1, HSC70 and DJA2, in the original screen; binding in peptide library screen, DJA2 (in words) (DJA2 [6]): binding by DJA1, HSC70 and DJA2, in the original screen
FGVIPQKVFIFSGTF [Peptide 1293-L] | only competed HSC70 | – | Strong, essentially saturating competition; also recorded: only competed HSC70 | only competed HSC70 | HSC70 concentration at which binding reached saturation (HSC70 [4]; titration on immobilized peptide, Fig. 2a, n ≥ 6): around 1 μM
488-L: NBD1 15-mer 481-495 (KIKHSGRISFCSQFS; UniProt P13569 481-495, looked up, fragment) [Peptide 488-L] | competed poorly | – | competed poorly | competed poorly | binding in peptide library screen, HSC70 (in words) (HSC70 [4]): binding by DJA1, HSC70 and DJA2, in the original screen; binding in peptide library screen, DJA1 (in words) (DJA1 [5]): binding by DJA1, HSC70 and DJA2, in the original screen; binding in peptide library screen, DJA2 (in words) (DJA2 [6]): binding by DJA1, HSC70 and DJA2, in the original screen
QAFADCTVI [Peptide 1394-S, NBD2 9-mer] | – | bound by HSC70, DJA2 and DJA1 | – | – | DJA1 binding site by competition screen (in words) (DJA1 [3]): bound by HSC70, DJA2 and DJA1; DJA2 binding site by competition screen (in words) (DJA2 [1]): bound by HSC70, DJA2 and DJA1
SCVCKLMAN [Peptide 593-S, NBD1 9-mer] | – | – | – | – | DJA1 binding site by competition screen (in words) (DJA1 [3]): DJA1 site
CC[C@H](C)[C@H](NC(=O)[C@@H](NC(=O)[C@@H](NC(=O)[C@H](CS)NC(=O)[C@H](CC(=O)O)NC(=O)[C@H](C)NC(=O)[C@H](Cc1ccccc1)NC(=O)[C@H](C)NC(=O)[C@H](CCC(N)=O)NC(=O)[C@H](CCCCN)NC(=O)[C@H](CC(C)C)NC(=O)[C@@H](NC(=O)[C@@H](N)CCCNC(=N)N)[C@@H](C)O)[C@@H](C)O)C(C)C)C(=O)N[C@@H](CC(C)C)C(=O)N[C@@H](CS)C(=O)O [Peptide 1393-L] (H-RTLKQAFADCTVILC-OH) | competed all of the chaperones well | – | competed all of the chaperones well | competed all of the chaperones well | Kd (DJA2 [1]; read-out: Kd from competition curves, DJA2): 1.49 µM
EIFESCVCK [Peptide 589-S, NBD1 9-mer] | – | – | – | – | DJA2 binding site by competition screen (in words) (DJA2 [1]): DJA2 site
